We go through three molecules from paper PMC5322520, “TubZ filament assembly dynamics requires the flexible C-terminal tail” (Scientific Reports, 2017).

The target in one assay is T1, CbTubZ316 (Clostridium phage c-st, UniProt Q331T7).
T1 construct: gene tubZ
The conditions noted are these: nucleotide-binding pocket; crystals at pH 5.5, 22 °C.

The target of the next assay is T2, BtTubZ (Bacillus thuringiensis, UniProt Q8KNP3).
T2 construct: gene tubZ; construct not described in main text; filaments
T2 sequence (Q8KNP3 whole entry): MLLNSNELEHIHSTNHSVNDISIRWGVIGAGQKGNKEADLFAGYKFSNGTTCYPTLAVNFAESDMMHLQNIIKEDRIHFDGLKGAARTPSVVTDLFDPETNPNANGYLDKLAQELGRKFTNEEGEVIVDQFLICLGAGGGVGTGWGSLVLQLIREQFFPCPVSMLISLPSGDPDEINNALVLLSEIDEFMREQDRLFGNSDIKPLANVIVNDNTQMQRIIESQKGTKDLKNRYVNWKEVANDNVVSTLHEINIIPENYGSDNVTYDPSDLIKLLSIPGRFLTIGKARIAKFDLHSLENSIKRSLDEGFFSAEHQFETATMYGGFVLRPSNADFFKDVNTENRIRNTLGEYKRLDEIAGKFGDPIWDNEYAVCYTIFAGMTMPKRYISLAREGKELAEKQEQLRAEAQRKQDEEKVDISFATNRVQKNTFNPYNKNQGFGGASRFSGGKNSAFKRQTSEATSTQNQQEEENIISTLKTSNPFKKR
The experiment in a line: HPLC of polymer-bound nucleotide. The class given is biochemical.

T1 sequence (Q331T7 1-316 limits assumed): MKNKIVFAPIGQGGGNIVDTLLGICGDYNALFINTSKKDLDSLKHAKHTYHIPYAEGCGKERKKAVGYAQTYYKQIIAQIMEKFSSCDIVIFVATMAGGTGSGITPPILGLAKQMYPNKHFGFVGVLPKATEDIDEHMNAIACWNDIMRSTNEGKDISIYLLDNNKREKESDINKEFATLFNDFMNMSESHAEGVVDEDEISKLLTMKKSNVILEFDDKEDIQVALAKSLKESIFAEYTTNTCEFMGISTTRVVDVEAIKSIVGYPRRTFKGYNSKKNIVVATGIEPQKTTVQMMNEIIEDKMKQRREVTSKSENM

Turning to `Nc1nc2c(ncn2[C@@H]2O[C@H](COP(=O)(O)OP(=O)(O)O)[C@@H](O)[C@H]2O)c(=O)[nH]1` [GDP], on CbTubZ316, the “X-ray crystal structure, 2.4 Å” value is reported as “TubZ316 displays GDP at the nucleotide-binding pocket”.

Consider `Nc1nc2c(ncn2[C@@H]2O[C@H](COP(=O)(O)OP(=O)(O)OP(O)(O)=S)[C@@H](O)[C@H]2O)c(=O)[nH]1` [GTP-γ-S], for which, at BtTubZ (filaments assembled with GTP-γ-S), the “HPLC of polymer-bound nucleotide” value is “nucleotide content of BtTubZ filaments assembled with GTP- γ-S and GTP”.

`Nc1nc2c(ncn2[C@@H]2O[C@H](COP(=O)(O)OP(=O)(O)OP(=O)(O)O)[C@@H](O)[C@H]2O)c(=O)[nH]1` [GTP]: the “HPLC of polymer-bound nucleotide” value at BtTubZ (filaments assembled with GTP) is “nucleotide content of BtTubZ filaments assembled with GTP- γ-S and GTP”.
